# Patent US12648925B2, “Composition for preventing or treating cancer, containing manassantin A and immune checkpoint inhibitor or epithelial growth factor receptor inhibitor” (KYUNGPOOK NATIONAL UNIVERSITY INDUSTRY-ACADEMIC COOPERATION …, priority 2019, dated 2026)
# System: Lewis lung carcinoma (LLC)
# Assay: Hypoxic state (hypoxyprobe-1/PIMO) and CD31 microvessel density by immunohistochemistry in LLC allograft tumor
# Type: in vivo, C57BL/6J mouse
# Conditions: 2 mg/kg intraperitoneal on day 2, 4, 6, 8, 10; tumor extracted day 17; vs PBS control; FIG. 1
# Description: As a control, the same amount of phosphate buffered saline (PBS) was injected. In addition, to measure a hypoxic state inside the tumor on day 17, 60 mg/kg of hypoxyprobe-1™ (pimonidazole hydrochloride; PIMO, HPI) was administered by intraperitoneal injection, and after 90 minutes, the mouse was sacrificed to extract the tumor. In addition, immunohistochemistry (HC) analyses were performed using the obtained tumor tissue. More particularly, the obtained tumor was fixed with 3.7% paraformaldehyde (PFA) and then dehydrated by treatment with a 10 to 40% sucrose solution step by step. In addition, after increasing the osmotic permeability of cells by treatment with 0.3% Triton X-100 and blocking with 5% bovine serum albumin (BSA), a rat anti-CD31 (BD Biosciences) or Alexa Fluor 647-conjugated anti-HIF-1 alpha antibody (Abcam) was treated and reacted at 4° C. for 16 hours. The mouse treated with the HIF-1 alpha antibody was a mouse which was not treated with hypoxyprobe-1™. […] In addition, finally, a cell nucleus was stained with DAPI (Sigma-Aldrich) and observed using a confocal microscope, followed by quantifying a fluorescent value using ImageJ. […]
compound,measurement,value
COc1ccc([C@@H](O)[C@@H](C)Oc2ccc([C@H]3O[C@H](c4ccc(O[C@H](C)[C@H](O)c5ccc(OC)c(OC)c5)c(OC)c4)[C@H](C)[C@H]3C)cc2OC)cc1OC [manassantin A],hypoxic state inside the tumor,significantly reduced
same,microvessel density (MVD) of CD31-positive vascular endothelial cells,significantly reduced
